What was measured:
Assay in all cases: Kinobeads competition binding, L-363 cell lysate
Conditions in all cases: 10 μM free compound, L-363 lysate
[1] = molecular target: ARG (Homo sapiens, UniProt P42684); set-up: endogenous in cells
Method in brief: (§1)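 Competition readout: iTRAQ 114/117 reporter-ion ratios from LC-MS/MS, compound-treated versus DMSO lysate. Free compound at 10 μM competed for kinase binding before addition of immobilized-compound beads. Source lysate came from L-363 cells exposed to 20 μM MG132 for three hours.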

[2] = molecular target: CDK2 (Homo sapiens, UniProt P24941); set-up: endogenous in cells
Method in brief: as §1

[3] = molecular target: CHK1 (Homo sapiens, UniProt O14757); set-up: endogenous in cells
Method in brief: as §1

[4] = molecular target: Erk1 (Homo sapiens, UniProt P27361); set-up: endogenous in cells
Method in brief: as §1

[5] = molecular target: T1, GCK (Homo sapiens, UniProt Q12851); set-up: endogenous in cells
T1 sequence (Q12851 1-820): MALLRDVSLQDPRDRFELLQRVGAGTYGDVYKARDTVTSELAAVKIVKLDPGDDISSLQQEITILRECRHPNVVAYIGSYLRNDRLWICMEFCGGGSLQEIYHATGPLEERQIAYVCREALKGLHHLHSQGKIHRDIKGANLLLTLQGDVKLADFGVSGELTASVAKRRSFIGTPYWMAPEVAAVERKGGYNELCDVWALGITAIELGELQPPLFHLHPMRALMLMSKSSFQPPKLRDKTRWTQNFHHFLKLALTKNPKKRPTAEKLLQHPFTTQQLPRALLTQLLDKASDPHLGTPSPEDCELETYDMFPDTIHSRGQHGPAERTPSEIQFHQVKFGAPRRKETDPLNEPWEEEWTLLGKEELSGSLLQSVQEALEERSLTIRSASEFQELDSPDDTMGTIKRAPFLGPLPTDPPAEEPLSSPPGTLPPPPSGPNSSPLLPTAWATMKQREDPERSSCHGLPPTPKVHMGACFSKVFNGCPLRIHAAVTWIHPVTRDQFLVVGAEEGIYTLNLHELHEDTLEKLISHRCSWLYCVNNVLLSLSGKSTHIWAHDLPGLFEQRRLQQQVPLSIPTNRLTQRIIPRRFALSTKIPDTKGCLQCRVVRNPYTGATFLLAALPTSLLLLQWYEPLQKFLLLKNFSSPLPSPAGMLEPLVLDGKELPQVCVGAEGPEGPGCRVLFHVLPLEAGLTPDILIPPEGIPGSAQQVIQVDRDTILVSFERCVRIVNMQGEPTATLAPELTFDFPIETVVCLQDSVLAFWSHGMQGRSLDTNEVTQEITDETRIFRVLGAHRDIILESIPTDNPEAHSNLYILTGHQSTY
Method in brief: as §1

[6] = molecular target: GSK3A (Homo sapiens, UniProt P49840); set-up: endogenous in cells
Method in brief: as §1

[7] = molecular target: HPK1 (Homo sapiens, UniProt Q92918); set-up: endogenous in cells
Method in brief: as §1

[8] = molecular target: T2, MST1 (Homo sapiens, UniProt Q13043); set-up: endogenous in cells
T2 sequence (Q13043 1-487): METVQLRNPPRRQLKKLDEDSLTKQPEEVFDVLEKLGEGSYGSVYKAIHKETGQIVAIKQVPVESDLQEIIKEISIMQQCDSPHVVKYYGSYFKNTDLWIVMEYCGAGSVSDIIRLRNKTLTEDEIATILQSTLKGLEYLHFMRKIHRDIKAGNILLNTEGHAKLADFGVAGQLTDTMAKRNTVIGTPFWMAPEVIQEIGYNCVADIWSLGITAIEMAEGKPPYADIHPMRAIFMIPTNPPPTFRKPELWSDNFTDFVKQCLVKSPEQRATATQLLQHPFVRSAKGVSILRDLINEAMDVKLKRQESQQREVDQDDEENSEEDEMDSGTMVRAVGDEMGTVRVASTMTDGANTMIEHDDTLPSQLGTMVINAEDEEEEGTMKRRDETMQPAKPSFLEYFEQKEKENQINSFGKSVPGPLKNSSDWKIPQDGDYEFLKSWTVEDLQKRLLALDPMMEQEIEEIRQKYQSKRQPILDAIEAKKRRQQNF
Method in brief: as §1

[9] = molecular target: T3, PIP5K2C (Homo sapiens, UniProt Q8TBX8); set-up: endogenous in cells
T3 sequence (Q8TBX8 1-421): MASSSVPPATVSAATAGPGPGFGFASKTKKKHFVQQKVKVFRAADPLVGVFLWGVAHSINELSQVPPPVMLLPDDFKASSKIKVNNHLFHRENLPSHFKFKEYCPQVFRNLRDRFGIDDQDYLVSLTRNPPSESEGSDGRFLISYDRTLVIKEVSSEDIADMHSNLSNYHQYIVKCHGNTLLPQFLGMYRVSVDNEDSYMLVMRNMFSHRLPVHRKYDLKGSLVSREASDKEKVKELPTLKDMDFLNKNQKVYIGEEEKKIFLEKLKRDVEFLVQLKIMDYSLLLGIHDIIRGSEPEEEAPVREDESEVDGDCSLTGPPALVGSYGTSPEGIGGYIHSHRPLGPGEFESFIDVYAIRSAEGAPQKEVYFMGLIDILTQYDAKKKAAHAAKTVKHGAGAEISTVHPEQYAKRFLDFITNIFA
Method in brief: as §1

[10] = molecular target: PLK4 (Homo sapiens, UniProt O00444); set-up: endogenous in cells; host or cells: L-363 cells (treated with MG132 before harvest)
Procedure: To one aliquot of cell lysate 10 μM of the free compound (FIG. 3, CZC31326) was added and allowed to bind to proteins in the lysate. Then the affinity matrix with the immobilized compound was added to capture proteins that were not interacting with the previously added free compound. Beads were separated from the lysate and bead bound proteins were eluted in SDS sample buffer and subsequently separated by SDS-Polyacrylamide gel electrophoresis (FIG. 8). Suitable gel bands were cut out and subjected to in-gel proteolytic digestion with trypsin. The second lysate aliquot was processed identically, however no free compound was added (DMSO solvent control). Peptides originating from samples 1 and 2 were labeled with iTRAQ reagents (iTRAQ 114 and iTRAQ 117) and the combined samples were analyzed with a nano-flow liquid chromatography system coupled online to a tandem mass spectrometer (LC-MS/MS) experiment followed by iTRAQ reporter ion quantification in the MS/MS spectra as described in Example 2.
For this experiment the human plasma cell leukaemia line L-363 was used (German Collection of Microorganisms and Cell Cultures, DSMZ number ACC49, Braunschweig, Germany). Cells were treated for three hours with 20 μM of the proteasome inhibitor MG132 (Z-Leu-Leu-Leu-al, Sigma C2211) prior to cell harvesting.

Sequence of CHK1 (O14757 whole entry): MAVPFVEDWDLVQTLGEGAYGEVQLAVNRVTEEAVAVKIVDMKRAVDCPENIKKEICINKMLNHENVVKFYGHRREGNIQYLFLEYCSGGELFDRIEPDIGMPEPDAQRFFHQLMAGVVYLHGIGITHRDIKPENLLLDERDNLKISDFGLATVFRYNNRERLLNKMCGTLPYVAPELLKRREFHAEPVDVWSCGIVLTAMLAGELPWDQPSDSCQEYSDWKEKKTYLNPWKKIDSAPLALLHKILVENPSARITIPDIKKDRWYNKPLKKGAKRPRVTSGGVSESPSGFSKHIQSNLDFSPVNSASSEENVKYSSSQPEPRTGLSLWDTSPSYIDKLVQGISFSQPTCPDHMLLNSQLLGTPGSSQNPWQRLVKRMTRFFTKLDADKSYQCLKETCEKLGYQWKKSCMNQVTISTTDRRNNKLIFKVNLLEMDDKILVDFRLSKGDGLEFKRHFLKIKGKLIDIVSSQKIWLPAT
Sequence of PLK4 (O00444 whole entry): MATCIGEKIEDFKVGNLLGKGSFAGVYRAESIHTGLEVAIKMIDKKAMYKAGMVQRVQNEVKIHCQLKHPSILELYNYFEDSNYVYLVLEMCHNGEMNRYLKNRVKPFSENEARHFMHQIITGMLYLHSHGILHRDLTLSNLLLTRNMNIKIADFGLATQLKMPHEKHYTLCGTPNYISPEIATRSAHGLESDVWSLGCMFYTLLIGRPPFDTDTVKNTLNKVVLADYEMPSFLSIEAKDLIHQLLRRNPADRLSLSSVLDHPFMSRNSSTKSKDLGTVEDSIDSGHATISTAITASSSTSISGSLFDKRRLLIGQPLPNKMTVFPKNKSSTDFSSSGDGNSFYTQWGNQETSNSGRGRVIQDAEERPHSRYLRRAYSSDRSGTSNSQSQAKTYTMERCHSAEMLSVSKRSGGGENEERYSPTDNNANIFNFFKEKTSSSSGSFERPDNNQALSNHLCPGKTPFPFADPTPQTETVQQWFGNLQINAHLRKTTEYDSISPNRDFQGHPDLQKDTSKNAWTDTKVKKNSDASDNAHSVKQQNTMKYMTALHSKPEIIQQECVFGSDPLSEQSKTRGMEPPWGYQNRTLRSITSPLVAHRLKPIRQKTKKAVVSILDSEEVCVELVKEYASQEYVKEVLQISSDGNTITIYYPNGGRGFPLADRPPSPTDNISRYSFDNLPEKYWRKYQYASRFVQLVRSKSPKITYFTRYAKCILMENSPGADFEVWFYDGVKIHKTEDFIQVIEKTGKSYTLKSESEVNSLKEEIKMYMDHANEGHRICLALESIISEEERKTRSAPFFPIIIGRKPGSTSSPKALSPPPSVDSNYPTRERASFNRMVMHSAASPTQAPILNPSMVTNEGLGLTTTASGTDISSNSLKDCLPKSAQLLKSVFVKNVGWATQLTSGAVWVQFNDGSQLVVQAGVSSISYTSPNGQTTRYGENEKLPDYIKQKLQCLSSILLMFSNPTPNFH
Sequence of Erk1 (P27361 whole entry): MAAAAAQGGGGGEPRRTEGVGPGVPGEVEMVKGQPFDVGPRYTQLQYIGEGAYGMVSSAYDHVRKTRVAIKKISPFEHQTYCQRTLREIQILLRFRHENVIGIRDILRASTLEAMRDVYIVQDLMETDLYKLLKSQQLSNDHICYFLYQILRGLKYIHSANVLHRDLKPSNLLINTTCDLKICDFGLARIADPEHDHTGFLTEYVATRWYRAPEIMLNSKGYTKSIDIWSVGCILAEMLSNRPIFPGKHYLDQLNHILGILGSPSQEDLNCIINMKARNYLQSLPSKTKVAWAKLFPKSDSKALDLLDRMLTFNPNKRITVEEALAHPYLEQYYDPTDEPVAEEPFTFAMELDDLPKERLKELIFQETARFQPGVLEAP
Sequence of HPK1 (Q92918 whole entry): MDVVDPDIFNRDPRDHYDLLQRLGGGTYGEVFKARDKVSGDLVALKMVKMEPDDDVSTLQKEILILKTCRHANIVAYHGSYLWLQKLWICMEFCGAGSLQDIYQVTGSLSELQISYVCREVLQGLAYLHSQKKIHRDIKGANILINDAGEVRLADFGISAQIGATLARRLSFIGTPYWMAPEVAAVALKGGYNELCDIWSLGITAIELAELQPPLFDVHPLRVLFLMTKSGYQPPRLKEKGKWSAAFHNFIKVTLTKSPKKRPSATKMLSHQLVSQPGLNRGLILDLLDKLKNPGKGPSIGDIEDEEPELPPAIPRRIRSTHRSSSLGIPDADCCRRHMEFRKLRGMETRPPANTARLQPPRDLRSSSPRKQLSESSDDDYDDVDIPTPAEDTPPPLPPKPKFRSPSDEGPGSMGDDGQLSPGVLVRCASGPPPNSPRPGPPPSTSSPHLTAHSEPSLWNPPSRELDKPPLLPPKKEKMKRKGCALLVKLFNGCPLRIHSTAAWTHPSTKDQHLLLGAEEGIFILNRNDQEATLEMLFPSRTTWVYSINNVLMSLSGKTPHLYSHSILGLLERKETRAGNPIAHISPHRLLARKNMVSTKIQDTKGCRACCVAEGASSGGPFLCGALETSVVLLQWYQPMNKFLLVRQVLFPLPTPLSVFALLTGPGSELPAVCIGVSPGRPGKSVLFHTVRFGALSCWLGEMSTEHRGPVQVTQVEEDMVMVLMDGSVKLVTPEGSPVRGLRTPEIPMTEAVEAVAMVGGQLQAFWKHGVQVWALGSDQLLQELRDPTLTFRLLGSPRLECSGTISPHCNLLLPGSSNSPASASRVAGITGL
Sequence of GSK3A (P49840 whole entry): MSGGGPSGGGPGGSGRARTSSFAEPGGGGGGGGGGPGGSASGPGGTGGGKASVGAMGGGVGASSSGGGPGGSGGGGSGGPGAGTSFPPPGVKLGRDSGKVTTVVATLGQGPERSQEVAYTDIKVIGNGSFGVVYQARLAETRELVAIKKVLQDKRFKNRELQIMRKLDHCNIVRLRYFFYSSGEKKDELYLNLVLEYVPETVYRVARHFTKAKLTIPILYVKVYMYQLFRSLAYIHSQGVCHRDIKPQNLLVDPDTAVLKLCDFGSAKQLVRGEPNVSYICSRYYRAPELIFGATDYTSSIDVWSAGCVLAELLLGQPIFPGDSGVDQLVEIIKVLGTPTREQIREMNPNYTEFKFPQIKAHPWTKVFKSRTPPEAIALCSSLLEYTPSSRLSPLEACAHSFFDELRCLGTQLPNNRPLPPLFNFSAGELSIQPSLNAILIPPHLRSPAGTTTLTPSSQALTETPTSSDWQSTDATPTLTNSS
Sequence of ARG (P42684 whole entry): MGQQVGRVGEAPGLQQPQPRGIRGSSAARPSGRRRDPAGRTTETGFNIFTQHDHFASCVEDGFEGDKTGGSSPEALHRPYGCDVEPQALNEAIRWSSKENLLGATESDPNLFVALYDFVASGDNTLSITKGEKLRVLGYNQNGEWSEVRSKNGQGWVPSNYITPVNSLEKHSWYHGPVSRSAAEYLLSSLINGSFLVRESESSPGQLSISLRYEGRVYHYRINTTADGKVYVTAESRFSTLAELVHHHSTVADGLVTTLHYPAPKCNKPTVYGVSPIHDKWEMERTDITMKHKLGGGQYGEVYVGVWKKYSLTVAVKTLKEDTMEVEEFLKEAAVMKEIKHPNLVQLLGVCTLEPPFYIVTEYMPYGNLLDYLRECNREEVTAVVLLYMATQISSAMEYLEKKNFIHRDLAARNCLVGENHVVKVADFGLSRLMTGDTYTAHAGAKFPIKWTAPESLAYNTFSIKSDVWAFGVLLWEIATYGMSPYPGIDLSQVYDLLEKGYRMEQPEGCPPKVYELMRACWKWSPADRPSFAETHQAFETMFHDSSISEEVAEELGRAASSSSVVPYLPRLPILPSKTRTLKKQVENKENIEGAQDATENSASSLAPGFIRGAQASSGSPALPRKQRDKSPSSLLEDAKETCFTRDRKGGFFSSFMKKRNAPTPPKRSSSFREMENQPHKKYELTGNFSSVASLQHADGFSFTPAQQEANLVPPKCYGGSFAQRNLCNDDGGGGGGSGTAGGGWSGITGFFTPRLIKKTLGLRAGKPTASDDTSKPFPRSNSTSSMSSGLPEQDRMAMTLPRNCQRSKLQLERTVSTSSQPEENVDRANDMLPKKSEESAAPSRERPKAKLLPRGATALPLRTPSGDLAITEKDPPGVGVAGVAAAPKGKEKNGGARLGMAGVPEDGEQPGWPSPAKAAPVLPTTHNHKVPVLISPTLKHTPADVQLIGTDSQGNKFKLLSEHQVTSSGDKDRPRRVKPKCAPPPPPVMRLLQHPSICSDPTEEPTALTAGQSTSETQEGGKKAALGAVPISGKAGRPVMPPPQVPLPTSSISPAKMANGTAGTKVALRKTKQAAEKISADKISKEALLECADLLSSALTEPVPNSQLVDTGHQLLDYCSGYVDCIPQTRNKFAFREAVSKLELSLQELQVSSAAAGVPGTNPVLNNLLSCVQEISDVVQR

inhibition at 10 µM [1]: 95.8%
Competition % [2]: 95.2%
Competition % [3]: 94.8%
inhibition at 10 µM [4]: 83.2%
inhibition at 10 µM [5]: 95.1%
inhibition at 10 µM [6]: 96.9%
inhibition at 10 µM [7]: 98%
Competition % [8]: 98.3%
inhibition at 10 µM [9]: 92%
inhibition at 10 µM [10]: 91.2%
Structure (SMILES): CS(=O)(=O)Nc1ccccc1Nc1nc(Nc2cccc(OCCN)c2)ncc1Cl [CZC31326, N-(2-(2-(3-(2-aminoethoxy)phenylamino)-5-chloropyrimidin-4-ylamino)phenyl)methanesulfonamide]

From patent US20120270237A9, “METHODS FOR THE IDENTIFICATION OF KINASE INTERACTING MOLECULES AND FOR THE PURIFICATION OF KINASE PROTEINS” (Cellzone AG, priority 2009, published 2012)
